Test results: patent publication US20220387365A1, “TUCARESOL DERIVATIVES AND USES THEREOF” (BeyondSpring Pharmaceuticals, Inc., priority 2019, published 2022)
“And” between values parts separate entries of the source, which are not always exact repeats. Equal entries are not always repeated.

Assay: Pharmacokinetics of tucaresol after a single dose in healthy subjects
[1] = plasma, single dose 400 mg, single subjects
[2] = plasma, single dose 800 mg, single subjects
[3] = plasma, single dose 1200 mg, single subjects
[4] = plasma, single dose 2000 mg, single subjects
[5] = plasma, single dose 2800 mg, single subjects
[6] = plasma, single dose 3600 mg, single subjects

O=Cc1c(O)cccc1OCc1ccc(C(=O)O)cc1 [Tucaresol]
half-life (human, in vivo, 2000 mg): 222 h
Tmax (human, in vivo, 2800 mg): 7.5 h
half-life (human, in vivo, 2800 mg): 223 h
Cmax (human, plasma, 200 mg, Cmax, single dose 200 mg, single subjects): 9.9 µg/mL
Tmax (human, plasma, 200 mg, tmax, single dose 200 mg, single subjects): 5 h
AUC (human, plasma, 400 mg, AUC, single dose 400 mg, single subjects): 2830 µg·h/mL
Cmax (human, plasma, 400 mg, Cmax, single dose 400 mg, single subjects): 16.6 µg/mL
half-life (human, plasma, 400 mg, t1/2,z, single dose 400 mg, single subjects): 133 h
Tmax (human, plasma, 400 mg, tmax, single dose 400 mg, single subjects): 4.03 h
AUC (human, plasma, 800 mg, AUC, single dose 800 mg, single subjects): 4890 µg·h/mL
Cmax (human, plasma, 800 mg, Cmax, single dose 800 mg, single subjects): 28.3 µg/mL
half-life (human, plasma, 800 mg, t1/2,z, single dose 800 mg, single subjects): 134 h
Tmax (human, plasma, 800 mg, tmax, single dose 800 mg, single subjects): 4 h
AUC (human, plasma, 1200 mg, AUC, Mean, single dose 1200 mg): 8860 µg·h/mL
Cmax (human, plasma, 1200 mg, Cmax, Mean, single dose 1200 mg): 38.4 µg/mL
Cmax (human, plasma, 1200 mg, Cmax, single dose 1200 mg, single subjects): 40.4 µg/mL
half-life (human, plasma, 1200 mg, t1/2,z, Mean, single dose 1200 mg): 195 h
Tmax (human, plasma, 1200 mg, tmax, Mean, single dose 1200 mg): 6.5 h
Tmax (human, plasma, 1200 mg, tmax, single dose 1200 mg, single subjects): 8 h
AUC (human, plasma, 2000 mg, AUC, Mean, single dose 2000 mg): 14800 µg·h/mL
AUC (human, plasma, 2000 mg, AUC, single dose 2000 mg, single subjects): 16300 µg·h/mL
Cmax (human, plasma, 2000 mg, Cmax, Mean, single dose 2000 mg): 58.6 µg/mL
Cmax (human, plasma, 2000 mg, Cmax, single dose 2000 mg, single subjects): 60.8 µg/mL
half-life (human, plasma, 2000 mg, t1/2,z, Mean, single dose 2000 mg): 229 h
half-life (human, plasma, 2000 mg, t1/2,z, single dose 2000 mg, single subjects): 278 h
Tmax (human, plasma, 2000 mg, tmax, Mean, single dose 2000 mg): 5.5 h
Tmax (human, plasma, 2000 mg, tmax, single dose 2000 mg, single subjects): 6 h
AUC (human, plasma, 2800 mg, AUC, Mean, single dose 2800 mg): 16900 µg·h/mL
AUC (human, plasma, 2800 mg, AUC, single dose 2800 mg, single subjects): 12900 µg·h/mL
Cmax (human, plasma, 2800 mg, Cmax, Mean, single dose 2800 mg): 73.7 µg/mL
Cmax (human, plasma, 2800 mg, Cmax, single dose 2800 mg, single subjects): 56.6 µg/mL
half-life (human, plasma, 2800 mg, t1/2,z, single dose 2800 mg, single subjects): 232 h
Tmax (human, plasma, 2800 mg, tmax, single dose 2800 mg, single subjects): 6 h
AUC (human, plasma, 3600 mg, AUC, Mean, single dose 3600 mg): 26600 µg·h/mL
AUC (human, plasma, 3600 mg, AUC, single dose 3600 mg, single subjects): 25400 µg·h/mL
Cmax (human, plasma, 3600 mg, Cmax, Mean, single dose 3600 mg): 95.8 µg/mL
Cmax (human, plasma, 3600 mg, Cmax, single dose 3600 mg, single subjects): 81.7 µg/mL
half-life (human, plasma, 3600 mg, t1/2,z, Mean, single dose 3600 mg): 289 h
half-life (human, plasma, 3600 mg, t1/2,z, single dose 3600 mg, single subjects): 291 h
Tmax (human, plasma, 3600 mg, tmax, Mean, single dose 3600 mg): 10 h
Tmax (human, plasma, 3600 mg, tmax, single dose 3600 mg, single subjects): 6.08 h
Cmax (plasma, single dose 200 mg, single subjects): 11.1 µg/mL
AUC [1]: 3562 µg·h/mL
CL0 [1]: 2.35 mL/min and 1.86 mL/min
Cmax [1]: 19.6 µg/mL
Tmax [1]: 3.00 h
t1/2,z [1]: 190 h
AUC [2]: 5759 µg·h/mL
CL0 [2]: 2.72 mL/min and 2.31 mL/min
Cmax [2]: 36.5 µg/mL
Tmax [2]: 4.08 h
t1/2,z [2]: 126 h
CL0, Mean (plasma, single dose 1200 mg): 2.40 mL/min
AUC [3]: 12103 µg·h/mL and 9180 µg·h/mL and 5987 µg·h/mL and 8161 µg·h/mL
CL0 [3]: 1.65 mL/min and 2.17 mL/min and 3.33 mL/min and 2.44 mL/min
Cmax [3]: 40.1 µg/mL and 39.3 µg/mL and 33.7 µg/mL
t1/2,z [3]: 252 h and 192 h and 123 h and 215 h
CL0, Mean (plasma, single dose 2000 mg): 2.27 mL/min
AUC [4]: 16487 µg·h/mL and 14010 µg·h/mL and 12455 µg·h/mL
CL0 [4]: 2.04 mL/min and 2.01 mL/min and 2.37 mL/min and 2.67 mL/min
Cmax [4]: 59.3 µg/mL and 57.1 µg/mL
t1/2,z [4]: 207 h and 209 h
CL0, Mean (plasma, single dose 2800 mg): 2.85 mL/min
AUC [5]: 20871 µg·h/mL and 15635 µg·h/mL and 18018 µg·h/mL
CL0 [5]: 3.61 mL/min and 2.23 mL/min and 2.97 mL/min and 2.58 mL/min
Cmax [5]: 87.7 µg/mL and 91.4 µg/mL and 59.3 µg/mL
Tmax [5]: 12.00 h
t1/2,z [5]: 240 h and 178 h and 241 h
CL0, Mean (plasma, single dose 3600 mg): 2.26 mL/min
AUC [6]: 27818 µg·h/mL and 24131 µg·h/mL and 29116 µg·h/mL
CL0 [6]: 2.36 mL/min and 2.15 mL/min and 2.48 mL/min and 2.05 mL/min
Cmax [6]: 86.3 µg/mL and 80.3 µg/mL and 134.7 µg/mL
t1/2,z [6]: 329 h and 265 h and 268 h
